The values below come from PMC12613816, “Discovery of Novel Isoxazole-Based Small-Molecule Toll-Like Receptor 8 Antagonists” (Journal of Medicinal Chemistry, 2025).

The subject of data set [1] is p-NF-κB p65, IκBα. Kind of data set: Western blot of NF-κB pathway proteins in TL8-506-stimulated THP-1 macrophages. Conditions: 10 μM, TL8-506 (0.6 μM) 15 min. Format: cell-based, human. From the text: (§1) Mean + SEM (n = 3). […] Bar graphs show mean + SEM (n = 3). […] Mean + SEM (n = 4). […] Whole-cell lysates were used for WB. […] Mean + SEM (n = 4). […] Mean + SEM (n = 4). […] Mean ± SEM (n = 3).
Twenty-five μg protein per lane was separated on a 10% TGX Stain-Free FastCast acrylamide gel (1610183, Bio-Rad, Feldkirchen, Germany) containing TEMED (2367, Carl Roth, Karlsruhe, Germany) and ammonium persulfate (A3678, Sigma-Aldrich, Taufkirchen, Germany) using MiniPROTEAN electrophoresis system (Bio-Rad). Gels were blotted on low fluorescence polyvinylidene difluoride membranes (Immobilon-FL PVDF low fluorescence; 05317, Merck, Darmstadt, Germany) using the Trans-Blot Turbo System (Bio-Rad, Feldkirchen, Germany). Membranes were blocked using 5% milk (T145.2, Carl Roth, Karlsruhe, Germany) in TBS-T buffer consisting of TRIS HCl (T3253, Sigma-Aldrich, Taufkirchen, Germany), NaCl (27810.295, VWR, Darmstadt, Germany), and Tween 20 (9127.1, Carl Roth, Karlsruhe, Germany). […] Afterward, they were washed three times with TBS-T and incubated with either rabbit anti-IgG HRP conjugated antibody (no. 7074) or mouse anti-IgG HRP conjugated antibody (no. 7076), all from Cell Signaling Technology (CST, Leiden, The Netherlands), for one h at RT. […] Values of protein expression were analyzed by densitometry and normalized to total protein levels using Image lab 6.1 Bio-Rad, Feldkirchen, Germany.

For data set [2], the system named is TNF and IL1B mRNA expression. Description: TNF and IL1B mRNA expression (qRT-PCR) in TL8-506-stimulated THP-1 macrophages. Conditions: 10 μM, TL8-506 (6 μM) 1 h. Format: cell-based, human.
Description: Synthesis of cDNA was carried out using an iScript cDNA synthesis kit (1708891, Bio-Rad, Feldkirchen, Germany). Quantitative real-time RT-PCR (qRT-PCR) was performed as described before. Primers (synthesized by TIB Molbiol, Berlin, Germany or Eurofins Genomics, Ebersberg, Germany) with the following sequences were used: GAPDH, 5′-[sequence]-3′ and 5′- [sequence]-3′; TNF, 5′-[sequence]-3′ and 5′-[sequence]-3′, IL1B, 5′-[sequence]-3′ and 5′-[sequence]-3′. […] The reaction mix containing cDNA template, primers, and SYBR green (iTaq Universal SYBR Green Supermix; 172–5125, Bio-Rad, Feldkirchen, Germany) was run under the conditions as described.
For data set [3], the system named is TLR2/1, TLR2/6, TLR3, TLR4, TLR5, TLR7, TLR9. Kind of data set: TLR specificity in hTLR-HEK293 reporter cells (NF-κB SEAP). Format: cell-based, human. Conditions: 10 μM compound. The procedure:
as §1
HEK-Blue cells (4 × 10^4 cells/well) and THP-1 macrophages (4 × 10^4 cells/well, 4 × 10^5 cells/well and 8 × 10^5 cells/well) were seeded in 96-well plates, 24-well plates, or 6-well plates (PS, Sarsted, Germany), respectively. For stimulation experiments, cells were washed with phosphate-buffered saline (PBS, Sigma-Aldrich) and media was replaced with OptiMEM (Thermo Fisher Scientific, Darmstadt, Germany). […] The following TLR ligands were used: Pam2CSK4, Pam3CSK4, poly(I:C) (HMW), LPS from Escherichia coli O111:B4 (LPS-EB Ultrapure), flagellin from Bacillus subtilis (flagellin-BS Ultrapure), CL307, CL075, R848, TL8-506, ODN2006 (all from InvivoGen, Toulouse, France), and Enpatoran (BIOZOL Diagnostika, Germany).

Data set [4] has as its system IL-1β release. Description: IL-1β release after TLR8 priming and NLRP3 activation in THP-1 macrophages. Format: cell-based, human. As to conditions: 10 μM, TL8-506 priming, nigericin or ATP.
Text: as §1

Data set [5] deals with PBMCs. Kind of data set: Cell viability (LDH release) in PBMCs. Format: cell-based, human. As to conditions: 24 h, up to 100 μM. On the procedure: In selected experiments, LDH assay was performed according to the manufacturer’s instructions (Thermo fisher Scientific, Darmstadt, Germany). The percentage of LDH release was calculated compared to the 100% cell lysis control.
(A) THP-1 Macrophages were incubated with increasing concentrations of 10 and 12 for 24 h. Cell viability was analyzed using the MTT assay, and normalized to non-stimulated cells (vehicle control). DMSO (10%, v/v) was used as the cytotoxic control. Mean + SEM (n=3). (B) PBMCs were incubated with 0.6 µM TL8-506 or increasing concentrations of 10 and 12 for 24 h. LDH […]
maximum LDH release. Mean + SEM (n=3-4).

For data set [6], the system named is THP-1 macrophages. Kind of data set: Cell viability (MTT) in THP-1 macrophages. The class given is cell-based, human. As to conditions: 24 h, up to 100 μM. On the procedure: Effects on cell viability were assessed by the MTT assay. […] Subsequently, 25 μL of MTT (3-(4,5-dimethylthiazol-2-yl)-2,5-diphenyltetrazolium bromide, 5 mg/mL) was added and incubated for 4 h at 37 °C. After the supernatants were removed, DMSO (4720.1, Carl Roth, Karlsruhe, Germany) was added and absorption at 540 nm was measured. Viability of the untreated cells was defined as 100%. DMSO (10% (v/v); A994.1, Carl Roth, Karlsruhe, Germany) served as a positive control. page 9: Figure S8. […] (A) THP-1 Macrophages were incubated with increasing concentrations of 10 and 12 for 24 h. Cell viability was analyzed using the MTT assay, and normalized to non-stimulated cells (vehicle control). DMSO (10%, v/v) was used as the cytotoxic control. Mean + SEM (n=3). (B) PBMCs

For data set [7], the system named is TLR2 or TLR4. Description: TNF release in THP-1 macrophages stimulated with TLR2 or TLR4 agonists (Pam3CSK4, Pam2CSK4, LPS). Format: cell-based, human. Conditions: 10 μM compound, 24 h. From the text:
Mean ± SEM (n = 3). […] Mean + SEM (n = 4).

The target of data set [8] is T1, TLR8 (Homo sapiens, UniProt Q9NR97).
T1 sequence (Q9NR97 27-1041): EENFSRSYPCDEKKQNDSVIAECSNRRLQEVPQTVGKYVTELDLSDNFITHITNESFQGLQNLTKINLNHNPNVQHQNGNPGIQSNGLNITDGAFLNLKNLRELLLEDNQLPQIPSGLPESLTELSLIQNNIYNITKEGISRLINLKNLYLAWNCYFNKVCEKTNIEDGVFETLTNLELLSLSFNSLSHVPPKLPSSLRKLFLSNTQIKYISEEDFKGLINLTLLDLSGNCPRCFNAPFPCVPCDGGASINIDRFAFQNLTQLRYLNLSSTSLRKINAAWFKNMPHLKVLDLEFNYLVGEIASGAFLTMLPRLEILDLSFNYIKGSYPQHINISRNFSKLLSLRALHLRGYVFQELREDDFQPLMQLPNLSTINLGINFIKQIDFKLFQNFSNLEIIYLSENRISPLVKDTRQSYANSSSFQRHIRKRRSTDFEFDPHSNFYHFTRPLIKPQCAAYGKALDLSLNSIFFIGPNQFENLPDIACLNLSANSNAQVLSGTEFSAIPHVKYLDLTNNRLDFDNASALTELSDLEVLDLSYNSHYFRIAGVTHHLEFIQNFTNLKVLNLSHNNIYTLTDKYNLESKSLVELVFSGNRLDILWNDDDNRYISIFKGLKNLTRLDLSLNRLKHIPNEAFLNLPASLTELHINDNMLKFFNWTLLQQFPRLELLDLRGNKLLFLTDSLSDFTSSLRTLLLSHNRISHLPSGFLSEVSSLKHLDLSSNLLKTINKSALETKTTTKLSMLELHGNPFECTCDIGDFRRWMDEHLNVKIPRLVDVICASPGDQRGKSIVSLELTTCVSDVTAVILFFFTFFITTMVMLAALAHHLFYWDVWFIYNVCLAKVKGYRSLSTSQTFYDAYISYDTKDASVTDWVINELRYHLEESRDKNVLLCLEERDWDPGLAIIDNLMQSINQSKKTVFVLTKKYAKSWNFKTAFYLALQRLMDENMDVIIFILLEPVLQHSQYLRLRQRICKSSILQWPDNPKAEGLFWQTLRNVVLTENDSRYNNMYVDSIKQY
Description: Inhibition of TL8-506-stimulated NF-κB activity (SEAP reporter, QuantiBlue) in hTLR8-HEK293 reporter cells. Also on record: host or cells: HEK293 (HEK-Blue hTLR8). The class given is cell-based.

The target of data set [9] is T2, hTLR7 (Homo sapiens, UniProt Q9NYK1).
T2 construct: host or cells: HEK293 (HEK-Blue hTLR7)
T2 sequence (Q9NYK1 27-1049): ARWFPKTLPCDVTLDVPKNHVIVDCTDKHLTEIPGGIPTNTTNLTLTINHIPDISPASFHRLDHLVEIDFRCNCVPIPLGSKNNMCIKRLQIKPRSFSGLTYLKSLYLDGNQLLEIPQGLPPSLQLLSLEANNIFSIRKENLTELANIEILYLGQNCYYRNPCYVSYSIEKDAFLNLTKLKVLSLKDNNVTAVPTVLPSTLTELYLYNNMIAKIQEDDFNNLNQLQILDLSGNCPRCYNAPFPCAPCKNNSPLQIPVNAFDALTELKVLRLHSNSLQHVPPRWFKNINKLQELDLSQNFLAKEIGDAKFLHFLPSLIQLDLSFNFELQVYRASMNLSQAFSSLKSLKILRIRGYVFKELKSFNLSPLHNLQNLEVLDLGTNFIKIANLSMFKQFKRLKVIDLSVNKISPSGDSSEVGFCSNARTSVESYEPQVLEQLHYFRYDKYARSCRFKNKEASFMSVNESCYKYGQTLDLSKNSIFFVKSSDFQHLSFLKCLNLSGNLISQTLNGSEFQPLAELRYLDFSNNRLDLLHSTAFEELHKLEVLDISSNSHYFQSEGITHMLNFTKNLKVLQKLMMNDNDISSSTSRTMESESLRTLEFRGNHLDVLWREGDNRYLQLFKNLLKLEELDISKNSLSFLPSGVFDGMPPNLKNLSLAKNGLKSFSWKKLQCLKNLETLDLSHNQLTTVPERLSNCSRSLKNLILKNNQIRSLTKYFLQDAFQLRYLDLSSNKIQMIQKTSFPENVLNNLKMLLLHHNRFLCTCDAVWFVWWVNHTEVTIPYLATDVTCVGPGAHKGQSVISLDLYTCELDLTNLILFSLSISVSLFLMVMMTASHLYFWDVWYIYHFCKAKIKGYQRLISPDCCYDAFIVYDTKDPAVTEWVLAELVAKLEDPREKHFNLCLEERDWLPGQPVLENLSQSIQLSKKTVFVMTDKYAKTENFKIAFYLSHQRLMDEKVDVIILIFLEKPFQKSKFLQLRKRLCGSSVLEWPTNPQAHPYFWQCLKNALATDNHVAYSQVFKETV
Kind of data set: Inhibition of CL307-stimulated NF-κB activity (SEAP reporter) in hTLR7-HEK293 reporter cells. The class given is cell-based. An excerpt: For stimulation experiments, cells were washed with phosphate-buffered saline (PBS, Sigma-Aldrich) and media was replaced with OptiMEM (Thermo Fisher Scientific, Darmstadt, Germany). […] The following TLR ligands were used: Pam2CSK4, Pam3CSK4, poly(I:C) (HMW), LPS from Escherichia coli O111:B4 (LPS-EB Ultrapure), flagellin from Bacillus subtilis (flagellin-BS Ultrapure), CL307, CL075, R848, TL8-506, ODN2006 (all from InvivoGen, Toulouse, France), and Enpatoran (BIOZOL Diagnostika, Germany).

Data set [10] deals with T1, TLR8. Description: Inhibition of TL8-506-stimulated TNF release (ELISA) in PBMCs. As to conditions: read-out: IC50 [μM] (95% CI) TNF release PBMCs, 1 h preincubation, TL8-506 (0.6 μM) 4 h.
Description: (§2) For the calculation of concentration–response curves, nonlinear regression with variable slope (four parameters) was used. Mean ± SEM (n = 3).
PMBCs were washed three times with PBS containing ETDA and afterward seeded in 24-well plates (5 × 10^6 cells/well).
For data set [11], the target named is T1, TLR8. Description: Inhibition of TLR8 agonist-stimulated TNF release (ELISA) in THP-1 macrophages.
Description: as §2
In data set [12] the target is T1, TLR8. As to conditions: TL8-506 alone.

In the case of `CCN1CCC(NC(=O)c2ccc(OCc3c(C)noc3C)c(OC)c2)CC1` [Compound 10], in data set [1], the IκBα level entry is recorded as “increased” and the “p-NF-κB p65 level” value was “reduced”. In [2], the “mRNA expression levels of TNF and IL1B” value is reported as “significantly inhibited”. Also, the “Activity against other TLRs (NF-κB activation)” value in [3] is reported as “no significant activity against other TLRs”. In addition, the IL-1β release entry in data set [4] was “blocked”. In data set [5], the “Cell viability PBMCs” value is “without affecting cell viability up to 100 μM”. In [6], the “Cell viability THP-1 macrophages” value is listed as “unaffected up to 100 μM”. Besides, the “TNF responses to TLR2 or TLR4 agonists” value in [7] is recorded as “without influencing responses”.

For the compound `COc1cc(C(=O)NCC(c2ccc(C)cc2)N(C)C)ccc1OCc1c(C)noc1C` (stereo not drawn) [Compound 12], the IC50 in [8] was less than 0.5 µM; in data set [8] (read-out: IC50 [μM] (95% CI) hTLR8-HEK293, inhibition of NF-κB activity, 1 h preincubation, TL8-506 (0.6 μM) 24 h), 0.5 µM; in [9] (read-out: IC50 [μM] (95% CI) hTLR7-HEK293, inhibition of NF-κB activity, 1 h preincubation, CL307 (1.7 µM) 24 h), greater than 50 µM; in data set [10] it was 1.15 µM; in data set [11] (read-out: IC50 [μM] (95% CI) TNF release THP-1 macrophages, 1 h preincubation, TL8-506 (0.6 μM) 4 h, ELISA), 0.12 µM. The inhibition at 10 µM in data set [8] (read-out: % inhibition at 10 µM ± SEM (NF-κB activity), 10 µM compound, TL8-506 (0.6 μM) 24 h, hTLR8-HEK293) was found to be 83 ± 15%. Further, the “Selectivity factor IC50 (TLR7)/ IC50 (TLR8)” value in data set [9] (hTLR7-HEK293 vs hTLR8-HEK293) is listed as greater than 102. For the same compound, the “Cell viability PBMCs” value in data set [5] is reported as “without affecting cell viability up to 100 μM”. For the same compound, the “Cell viability THP-1 macrophages” value in [6] is listed as “unaffected up to 100 μM”. Besides, in [7], the “TNF responses to TLR2 or TLR4 agonists” value is reported as “without influencing responses”. In addition, the “TNF production in response to TLR8 agonists TL8-506 or CL075” value in data set [11] (10 μM compound, THP-1 macrophages, 24 h) is “selectively inhibited”.

Take `CCOC(=O)C1=Cc2ccc(-c3cccc(C#N)c3)cc2N=C(N)C1` [TL8-506]: the “ECmax [%] (95% CI) of TL8-506” value in data set [12] was 97.6 (92.9-104.7) %. Moreover, the EC50 in data set [12] (read-out: EC50 [µM] (95% CI) of TL8-506) was 0.19 µM.
